How the values were obtained:
[1] = Cytotoxicity against human BCG823 cells after 48 hrs by sulforhodamine B assay; format: functional, cell-based; settings: BCG823, 48 h
Bel-7402 = test: Cytotoxicity against human Bel7402 cells after 48 hrs by sulforhodamine B assay; format: functional, cell-based; settings: Bel-7402, 48 h

C[C@]12CC[C@H]3[C@@H](CC[C@]4(O)C[C@@H](O[C@@H]5OC[C@@H](O)[C@H](O)[C@H]5O)CC[C@]34C=O)[C@@]1(O)CC[C@@H]2C1=CC(=O)OC1
IC50 [1]: 16 nM | IC50 (Bel-7402): 130 nM

C[C@]12CC[C@H](O[C@@H]3OC[C@@H](O)[C@H](O)[C@H]3O)C[C@@]1(O)CC[C@@H]1[C@@H]2CC[C@]2(C)[C@@H](C3=CC(=O)OC3)CC[C@]12O
IC50 [1]: 230 nM | IC50 (Bel-7402): 480 nM

C[C@@H]1O[C@@H](O[C@H]2CC[C@]3(C=O)[C@H]4CC[C@]5(C)[C@@H](C6=CC(=O)OC6)CC[C@]5(O)[C@@H]4CC[C@]3(O)C2)[C@H](O)[C@H](O)[C@H]1O [CONVALLATOXIN]
IC50 [1]: 16 nM | IC50 (Bel-7402): 50 nM

C[C@@H]1O[C@@H](O[C@H]2CC[C@@]3(C=O)[C@H](CC[C@@H]4[C@@H]3CC[C@]3(C)[C@@H](C5=CC(=O)OC5)CC[C@]43O)C2)[C@H](O)[C@H](O)[C@H]1O[C@@H]1O[C@H](CO)[C@@H](O)[C@H](O)[C@H]1O
IC50 [1]: 290 nM | IC50 (Bel-7402): 870 nM

C[C@@H]1O[C@@H](O[C@H]2CC[C@@]3(CO)[C@H](CC[C@@H]4[C@@H]3CC[C@]3(C)[C@@H](C5=CC(=O)OC5)CC[C@]43O)C2)[C@H](O)[C@H](O)[C@H]1O
IC50 [1]: 77 nM | IC50 (Bel-7402): 28 nM

C[C@@H]1O[C@@H](O[C@@H]2C[C@H]3CC[C@@H]4[C@H](CC[C@]5(C)[C@@H](C6=CC(=O)OC6)CC[C@]45O)[C@@]3(C)[C@H](O)C2)[C@H](O)[C@H](O)[C@H]1O
IC50 [1]: 56 nM | IC50 (Bel-7402): 240 nM

C[C@H]1O[C@@H](O[C@H]2CC[C@]3(C=O)[C@H]4CC[C@]5(C)[C@@H](C6=CC(=O)OC6)CC[C@]5(O)[C@@H]4CC[C@]3(O)C2)[C@H](O)[C@@H](O)[C@@H]1O
IC50 [1]: 100 nM | IC50 (Bel-7402): 20 nM

C[C@H]1O[C@@H](O[C@H]2CC[C@]3(C)[C@H]4CC[C@]5(C)[C@@H](C6=CC(=O)OC6)CC[C@]5(O)[C@@H]4CC[C@]3(O)C2)[C@H](O)[C@@H](O)[C@H]1O
IC50 [1]: 120 nM | IC50 (Bel-7402): 400 nM

C[C@H]1O[C@@H](O[C@H]2CC[C@]3(C)[C@H]4CC[C@]5(C)[C@@H](C6=CC(=O)OC6)CC[C@]5(O)[C@@H]4CC[C@]3(O)C2)[C@H](O)[C@@H](O)[C@@H]1O
IC50 [1]: 70 nM | IC50 (Bel-7402): 310 nM

Source: ChEMBL document CHEMBL1141287, “Cardenolides from Saussurea stella with cytotoxicity toward cancer cells” (J Nat Prod, 2007)
